Source: ChEMBL document CHEMBL4261541, “Synthesis and evaluation of oxindoles as promising inhibitors of the immunosuppressive enzyme indoleamine 2,3-dioxygenase 1” (Medchemcomm, 2017)
One block for each molecule: values may come before it. Active and inactive are the calls of the source. No cut-off for these calls is given here.

How the values were obtained:
[1] = target: T1, Indoleamine 2,3-dioxygenase 1 (Homo sapiens, UniProt P14902); experiment: Inhibition of recombinant human IDO1 assessed as reduction in conversion of L-tryptophan to kynurenine by methylene blue dye based spectrometric method
Target sequence in this assay (P14902 whole entry): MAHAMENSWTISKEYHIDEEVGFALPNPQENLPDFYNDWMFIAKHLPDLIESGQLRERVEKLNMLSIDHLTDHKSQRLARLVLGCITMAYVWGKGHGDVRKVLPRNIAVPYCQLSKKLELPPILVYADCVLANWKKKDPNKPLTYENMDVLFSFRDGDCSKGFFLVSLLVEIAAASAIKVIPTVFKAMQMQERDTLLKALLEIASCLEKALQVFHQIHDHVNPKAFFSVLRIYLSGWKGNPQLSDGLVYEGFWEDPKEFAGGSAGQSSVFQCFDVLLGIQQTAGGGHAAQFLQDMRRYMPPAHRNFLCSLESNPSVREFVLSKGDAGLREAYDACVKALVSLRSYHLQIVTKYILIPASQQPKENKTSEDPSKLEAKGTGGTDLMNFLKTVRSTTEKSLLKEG

A549 = experiment: Cytotoxicity against human A549 cells assessed as reduction in cell viability at 2 times IDO1 inhibitory IC50 after 48 hrs by MTT assay; type: functional, cell-based
J774.A1 = experiment: Cytotoxicity against mouse J774A.1 cells assessed as reduction in cell viability at 2 times IDO1 inhibitory IC50 after 48 hrs by MTT assay; type: cell-based; settings: j774.a1, 48 h
MDA-MB-231 [2] = experiment: Cytotoxicity against human MDA-MB-231 cells assessed as induction of morphological changes at 2 times IDO1 inhibitory IC50 after 48 hrs by cytell imaging analysis; type: functional, cell-based
[3] = target: Tryptophan 2,3-dioxygenase (Homo sapiens, UniProt P48775); experiment: Inhibition of recombinant human TDO assessed as reduction in conversion of L-tryptophan to kynurenine by methylene blue dye based spectrometric method
[4] = target: T1, Indoleamine 2,3-dioxygenase 1; experiment: Inhibition of IFNgamma-stimulated IDO1 in human MDA-MB-231 cells preincubated for 4 hrs followed by tryptophan addition measured after 5 hrs by methylene blue dye based spectrophotometric method; type: cell-based
Target sequence in this assay (P14902 whole entry): as above

[5] = target: T1, Indoleamine 2,3-dioxygenase 1; experiment: Binding affinity to human ferrous-IDO1 assessed as blue shift in soret peak at 50 uM by UV-Visible spectrophotometric method
Target sequence in this assay (P14902 whole entry, looked up): as the sequence (P14902 whole entry) above

Homo sapiens = species on record: Homo sapiens; experiment: Selectivity ratio of IC50 for human TDO to IC50 for human IDO1
[6] = target: T1, Indoleamine 2,3-dioxygenase 1; experiment: Binding affinity to human ferric-IDO1 assessed as blue shift in soret peak at 50 uM by UV-Visible spectrophotometric method
Target sequence in this assay (P14902 whole entry, looked up): as the sequence (P14902 whole entry) above

MDA-MB-231 [7] = experiment: Cytotoxicity against human MDA-MB-231 cells assessed as reduction in cell viability at 2 times IDO1 inhibitory IC50 after 48 hrs by MTT assay; type: functional, cell-based
[8] = target: T1, Indoleamine 2,3-dioxygenase 1; experiment: Competitive inhibition of recombinant human IDO1 assessed as reduction in conversion of L-tryptophan to N-formylkynurenine at 200 to 1500 nM by methylene blue dye based spectrometric method
Target sequence in this assay (P14902 whole entry, looked up): as the sequence (P14902 whole entry) above

HeLa = experiment: Cytotoxicity against human HeLa cells assessed as reduction in cell viability at 2 times IDO1 inhibitory IC50 after 48 hrs by MTT assay; type: functional, cell-based
[9] = target: T1, Indoleamine 2,3-dioxygenase 1; experiment: Uncompetitive inhibition of recombinant human IDO1 assessed as reduction in conversion of L-tryptophan to N-formylkynurenine at 200 to 1500 nM by methylene blue dye based spectrometric method
Target sequence in this assay (P14902 whole entry, looked up): as the sequence (P14902 whole entry) above

Sequence of Tryptophan 2,3-dioxygenase (P48775 whole entry): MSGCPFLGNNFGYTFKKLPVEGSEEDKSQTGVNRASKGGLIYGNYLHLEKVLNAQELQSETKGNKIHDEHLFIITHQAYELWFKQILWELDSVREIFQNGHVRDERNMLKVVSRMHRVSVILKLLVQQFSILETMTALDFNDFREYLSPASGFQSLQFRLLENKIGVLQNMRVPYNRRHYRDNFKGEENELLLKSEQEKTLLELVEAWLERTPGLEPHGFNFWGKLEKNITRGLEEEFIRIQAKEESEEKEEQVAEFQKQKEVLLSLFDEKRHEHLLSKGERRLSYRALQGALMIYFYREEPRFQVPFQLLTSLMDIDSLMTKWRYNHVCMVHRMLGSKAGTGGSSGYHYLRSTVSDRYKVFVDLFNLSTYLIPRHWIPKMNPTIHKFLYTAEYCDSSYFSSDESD

IC50 [1]: 1950 nM
SMILES: CC(C)(C)OC(=O)N[C@@H](CC1C(=O)Nc2ccccc21)C(=O)O (stereo partly specified)

Ratio IC50 (Homo sapiens): 31
SMILES: O=C1Nc2ccccc2/C1=N/Nc1cccc(Cl)c1

IC50 [1]: 450 nM
IC50 [3]: 56100 nM
EC50 [4]: 490 nM
inhibition [5]: Active
Ratio IC50 (Homo sapiens): 124
Activity [6]: 9 nm
inhibition [8]: Active
SMILES: CC(=O)CC(=O)CC1(O)C(=O)Nc2ccccc21 (stereo unspecified)
Activity (A549): inactive
Activity (J774.A1): Non-Toxic
Activity (MDA-MB-231 [2]): inactive
Activity (MDA-MB-231 [7]): inactive
Activity (HeLa): inactive

IC50 [1]: 13600 nM
SMILES: N[C@@H](CC1C(=O)Nc2ccccc21)C(=O)OCc1ccccc1 (stereo partly specified)

IC50 [1]: 2560 nM
SMILES: O=C1Nc2ccccc2/C1=N\c1ccc(Cl)cc1

IC50 [1]: 1780 nM
IC50 [3]: 52900 nM
Ratio IC50 (Homo sapiens): 30
SMILES: Cc1ccc(S(=O)(=O)N/N=C2\C(=O)Nc3ccccc32)cc1

IC50 [1]: 8330 nM
SMILES: NC(=O)[C@@H](N)CC1C(=O)Nc2ccccc21 (stereo partly specified)

IC50 [1]: 1240 nM
IC50 [3]: 46200 nM
Ratio IC50 (Homo sapiens): 37
inhibition [8]: Active
SMILES: O=C1Nc2ccccc2/C1=N/c1ccccc1Br

IC50 [1]: 1580 nM
IC50 [3]: 38300 nM
Ratio IC50 (Homo sapiens): 24
SMILES: O=C1Nc2ccccc2/C1=N/Nc1ccccc1C(F)(F)F

IC50 [1]: 190 nM
IC50 [3]: 39900 nM
EC50 [4]: 330 nM
inhibition [5]: Active
Ratio IC50 (Homo sapiens): 210
Activity [6]: Active
inhibition [8]: Active
SMILES: CC(=O)CC(=O)/C=C1\C(=O)Nc2ccc(Cl)cc21
Activity (A549): inactive
Activity (J774.A1): Non-Toxic
Activity (MDA-MB-231 [2]): inactive
Activity (MDA-MB-231 [7]): inactive
Activity (HeLa): inactive

IC50 [1]: 2310 nM
IC50 [3]: 58300 nM
Ratio IC50 (Homo sapiens): 25
SMILES: O=C(NCCC1C(=O)Nc2ccccc21)OCc1ccccc1 (stereo unspecified)

IC50 [1]: 4730 nM
SMILES: O=C1CCCC(=O)C1C1(O)C(=O)Nc2ccccc21 (stereo unspecified)

IC50 [1]: 620 nM
IC50 [3]: 83500 nM
EC50 [4]: 480 nM
inhibition [5]: Active
Ratio IC50 (Homo sapiens): 135
Activity [6]: Active
inhibition [8]: Active
SMILES: CC(=O)N[C@@H](CC1C(=O)Nc2ccccc21)C(=O)O (mixture of isomers)
Activity (A549): inactive
Activity (J774.A1): Non-Toxic
Activity (MDA-MB-231 [2]): inactive
Activity (MDA-MB-231 [7]): inactive
Activity (HeLa): inactive

IC50 [1]: 1950 nM
SMILES: O=C1Nc2ccccc2C1=NNc1ccccc1

IC50 [1]: 930 nM
IC50 [3]: 71000 nM
Ratio IC50 (Homo sapiens): 76
SMILES: CCOC(=O)C(C(=O)OCC)=C1C(=O)Nc2ccccc21

Further lines, the molecule ahead of its results:

SMILES: O=C1Nc2ccccc2/C1=N/Nc1cccc([N+](=O)[O-])c1
IC50 [1]: 3740 nM

SMILES: CC(=O)CC1(O)C(=O)Nc2ccc(Cl)cc21 (stereo unspecified)
IC50 [1]: 1970 nM

SMILES: O=C(N[C@@H](CC1C(=O)Nc2ccccc21)C(=O)O)OCc1ccccc1 (stereo partly specified)
Activity (A549): inactive
Activity (J774.A1): Non-Toxic
IC50 [1]: 1280 nM
Activity (MDA-MB-231 [2]): inactive
IC50 [3]: 27200 nM
EC50 [4]: 1260 nM
inhibition [5]: Active
Ratio IC50 (Homo sapiens): 21
Activity [6]: Active
Activity (MDA-MB-231 [7]): inactive
inhibition [8]: Active
Activity (HeLa): inactive

SMILES: CC(=O)CC(=O)CC1(O)C(=O)Nc2ccc(Cl)cc21 (stereo unspecified)
IC50 [1]: 890 nM
inhibition [9]: Active

SMILES: O=C1Nc2ccccc2/C1=N/Nc1ccc(Cl)cc1
Activity (A549): inactive
Activity (J774.A1): Non-Toxic
IC50 [1]: 630 nM
inhibition [9]: Active
Activity (MDA-MB-231 [2]): inactive
IC50 [3]: 53400 nM
EC50 [4]: 420 nM
Ratio IC50 (Homo sapiens): 85
Activity (MDA-MB-231 [7]): inactive
Activity (HeLa): inactive

SMILES: CC(=O)/C=C1\C(=O)Nc2ccc(Cl)cc21
Activity (A549): inactive
Activity (J774.A1): Non-Toxic
IC50 [1]: 360 nM
Activity (MDA-MB-231 [2]): inactive
IC50 [3]: 54700 nM
EC50 [4]: 460 nM
Ratio IC50 (Homo sapiens): 152
Activity (MDA-MB-231 [7]): inactive
inhibition [8]: Active
Activity (HeLa): inactive

SMILES: O=C(N[C@@H](CC1C(=O)Nc2ccccc21)C(=O)OCc1ccccc1)OCc1ccccc1 (stereo partly specified)
IC50 [1]: 2250 nM

SMILES: Cn1cc(C[C@H](N)C(=O)O)c2ccccc21
Activity (MDA-MB-231 [2]): inactive
Activity (MDA-MB-231 [7]): inactive

SMILES: CC(=O)/C=C1\C(=O)Nc2ccccc21
IC50 [1]: 1690 nM

SMILES: N[C@@H](CC1C(=O)Nc2ccccc21)C(=O)O (stereo partly specified)
IC50 [1]: 3390 nM
IC50 [3]: 60200 nM
Ratio IC50 (Homo sapiens): 18

SMILES: O=C(N[C@@H](CC1C(=O)Nc2ccccc21)C(=O)O)c1ccccc1 (mixture of isomers)
IC50 [1]: 1580 nM

SMILES: NCCC1C(=O)Nc2ccccc21 (stereo unspecified)
IC50 [1]: 3970 nM

SMILES: O=C1N=c2ccccc2=C1NNc1cccc(Cl)c1
IC50 [1]: 1510 nM
IC50 [3]: 46800 nM
